In publication PMC4171606, “A novel copper(I) complex induces ER-stress-mediated apoptosis and sensitizes B-acute lymphoblastic leukemia cells to chemotherapeutic agents” (Oncotarget, 2014):

Assays:
Assay type in all cases: cell-based, human
[1] = tested on: PHA stimulated healthy PBMC; assay: MTT growth inhibition, 72 h; settings: mean ± SE
[2] = tested on: GRP78, CHOP, PARP, caspase-3; assay: Western blot on blast cells from B-ALL patients; settings: CP 2.5 μM, 12 h
Experimental: (§1) FIGURE 6 CP effects on B-ALL primary cultures (A) Blast cells from six B-ALL patients were incubated for 24 h with different concentrations of CP. For the sake of comparison CD19^+ cells from peripheral blood of healthy donors, and PBMC were also incubated with CP in the presence or absence of PHA. Cell viability were assayed by MTT analysis. Data are represented as mean ± S.E.M of four independent experiments. (B) Bone marrow cells from healthy donors were treated for 24 h with CP (2.5 μM and 5 μM). Cell viability was evaluated on the whole population by flow cytometry after staining the cells with Annexin-V-FITC and PI. are represented as mean ± S.E.M of 3 independent experiments. (C) Western Blot analysis of GRP78 and CHOP expression, PARP cleavage and caspase-3 activation, on protein extracts of blast cells from B-ALL patients treated with CP (2.5 μM) for 12 h.
Cells were treated with CP and, after different times, were collected, centrifuged and washed with ice cold phosphate-buffered saline (PBS). The pellet was then resuspended in lysis buffer as described. The protein concentration in the supernatant was determined using the BCA protein assay (Pierce, Italy). Equal amounts of protein (10 μg) were resolved using SDS-PAGE gel electrophoresis (Criterion precast Tris-HCl gel, BioRad, Italy) and transferred to PVDF Hybond-p membranes (GE Healthcare, Italy). […]

[3] = tested on: PHA-stimulated PBMC; assay: MTT viability of healthy cells, 24 h
Experimental: (§2) CP growth inhibitory activity was measured on primary cultures derived from pediatric patients affected by B-acute lymphoblastic leukemia. […] In particular, in resting and in PHA-stimulated PBMC, and in CD19^+ cells GI50 was higher than 10 μM confirming that CP preferentially affects leukemia cells.
as §1
(§3) Peripheral blood mononuclear cells (PBMC) and bone marrow cells from healthy donors were obtained by separation on Lymphoprep (Fresenius KABI, Norge AS) gradient. After extensive washing, cells were resuspended (1.0 × 10^6 cells/ml) in RPMI1640 with 10% fetal bovine serum and incubated overnight in 96-well tissue culture microtiter plate. For cytotoxicity evaluations in proliferating PBMC cultures, non-adherent cells were resuspended in growth medium, containing 2.5 μg/ml phytohematoglutinin (PHA) (Irvine Scientific). To isolate B-lymphocyte, PBMC obtained by Lymphoprep (Fresenius KABI, Norge AS) separation were labeled with anti-CD19-APC (BD Biosciences, Italy) and collected by cell sorting.

[4] = tested on: CD19+ cells from peripheral blood of healthy donors; assay: MTT viability of healthy cells, 24 h
Experimental: as §2, §1, §3

[5] = tested on: RS4;11 and SEM cells; assay: Mitochondrial transmembrane potential, JC-1; settings: CP 2.5 μM
Experimental: To determine whether the apoptotic stimuli involved mitochondria alteration, we examined the mitochondrial transmembrane potential (ΔΨmt) by means of the fluorescence dye JC-1.
FIGURE 2 CP induces caspase-dependent apoptosis without mitochondria involvement (A) Assessment of mitochondrial membrane potential (ΔΨmt) after treatment of RS4;11 and SEM cells with CP (2.5 μM) for the indicated times. Cells were stained with the fluorescent probe JC-1. Data are represented as mean ± S.E.M. of three independent experiments. (B) Flow cytometric analysis of RS4;11 and SEM cells treated with CP (2.5 μM) for 24 h showing cytochrome c labeled with a monoclonal antibody conjugated to FITC. Representative image of three experiments with similar results. (C) Cells were incubated with CP 2.5 μM and 5 μM in the presence or absence of the pan-caspase inhibitor z-VAD.fmk (100 μM). Cell viability was determined after 48 h by MTT assay. […]
The mitochondrial membrane potential was measured with the lipophilic cation 5,5',6,6'-tetrachlo-1,1',3,3'-tetraethylbenzimidazolyl-carbocyanine (JC-1) (Life Technologies, Italy) as previously described. Cytochrome c release was analyzed by flow cytometry using a commercial kit (Innocyte flow cytometric cytochrome c release kit, Calbiochem, Italy) following the manufacturer's instructions.

[6] = tested on: RS4;11 and SEM cells; assay: Cell cycle distribution by flow cytometry (PI); settings: 24 h, different concentrations
Experimental: FIGURE 1 CP uptake and effects on cell cycle and apoptosis induction A) RS4;11, SEM, THP1, Jurkat cell lines and healthy PBMC were incubated with 6.25, 12.5 and 25 μM of CP for 24 h. The intracellular accumulation of CP was detected by GF-AAS analysis. B) SEM and RS4;11 cells were treated with the indicated concentrations of CP for 24 h, cell cycle distribution and Sub-G1 contents were analyzed by flow cytometry after cell staining with PI. The percentages of each phase of the cell cycle (G1, S, G2/M) were calculated on living cells whereas the percentages of cells with hypodiploid DNA content peak (subG1) was referred to cell population characterized by the appearance of subG1 peak. C) SEM and RS4;11 cells were incubated with 2.5 μM CP for the indicated times and analyzed by flow cytometry after double staining with Annexin-V-FITC and PI. Data are represented as mean ± S.E.M. of three independent experiments.
The effects of different concentrations of CP on cell cycle progression were examined in RS4;11 and SEM cells after 24 h of treatment.
5×10^5 RS4;11 and SEM cells in exponential growth were treated with different concentrations of CP for different times. After the incubation, cells were collected, centrifuged and fixed with ice-cold ethanol (70%) and stained with PI as described previously. DNA histograms were analyzed using Multicycle for Windows (Phoenix Flow Systems)

## F[P-](F)(F)(F)(F)F.OCP(CO)CO.OCP(CO)CO.OCP(CO)CO.OCP(CO)CO.[Cu+] [CP, [Cu(thp)4][PF6]]
[1]
  GI50: 16.9 ± 1.6 µM
[2]; patient cells
  caspase-3 activation and PARP cleavage: induced caspase-3 activation and PARP cleavage
[2]; primary cultures
  GRP-78 and CHOP expression: significant increase in the expression of both these markers
[3]
  GI50: > 10 µM
[4]
  GI50: > 10 µM
[5]
  percentage of cells with low ΔΨmt: slightly increased, only after 12 h
[6]
  cell population with hypodiploid DNA content peak (subG1): concentration-dependent increase
  effect on cell cycle progression: did not affect cell cycle
